Reference: patent US11028084B2, “Selective inhibitors of gentotoxic steress-induced IKK/NF-κB pathways” (Max-Delbrück-Centrum für Molekulare Medizin in der …, priority 2016, dated 2021)

How the values were obtained:
[1] = test system: TNFα-induced NF-κB activation; assay: NF-κB DNA binding activity (EMSA) after TNFα stimulation, HEK293 cells; format: cell-based, human
Method: FIG. 4: (A) U2OS cells were pre-treated with increasing concentrations of MW01 in triplicates in a 384 well plate. Then, cells were treated with TNFα, fixed and subjected to IF staining of p65. Spatial measurement of p65 cytosolic and nuclear signals was used for the calculation of p65 translocation rates. (B) U2OS cells were pre-treated with MW01 at concentrations of 10 or 20 μM and stimulated with TNFα. Cell lysates were subjected to SDS-PAGE/WB. (C) HEK293 cells were pre-treated with DMSO or MW01 followed by administration of etoposide or TNFα. Cell lysates were used for EMSA.
For the activation of the canonical NF-κB pathway cells were treated with recombinant human TNFα (10 ng/ml) or IL-1β (10 ng/ml) for 20-30 min at 37° C.
Nuclear or whole cell lysates were incubated with a ^32P-labeled NF-κB DNA-[…]

[2] = biological target: nuclear IKKγ-PIASy-PARP1-ATM signalosome (Homo sapiens, UniProt P09874+Q13315+Q8N2W9+Q9Y6K9); assay: Nuclear PARP1-signalosome formation, co-immunoprecipitation, HepG2 cells; format: cell-based; design: endogenous in cells
Method: FIG. 8: (A) HepG2 cells were pre-treated with DMSO or MW01 and irradiated. Nuclear cell extracts (NE) were used for PIASy immunoprecipitation (IP). Western blot membranes were incubated with indicated antibodies. (B) Experiment as shown in (A), but with IKKγ IP. (C) Experiment as shown in (B), but done in HEK293 cells. (D) Experiment done as shown in […], but repeated in MEF cells.
Following cell lysis the protein concentration of samples was determined. For input controls, 40 μg lysate were mixed with 6×SDS-buffer and denatured by heating to 95° C. for 4 min. Approximately 1500 μg protein lysate was used for pulldown and samples volumes were equalled with lysis buffer. Lysates were precleared with 30 μl sepharose A or sepharose G beads (depending on the antibody type used for pulldown) for 30 min, and centrifuged for 5 min at 1,500×g. The supernatant was transferred to a new reaction tube. Primary antibody (2-2.5 μg) was added to the cleared lysate for immunoprecipitation overnight while rotating at 4° C. The next day 30 μl sepharose beads per sample were used for immobilisation of antibodies. Following 4 washes with IP wash buffer precipitated proteins were eluted by mixing with 3×SDS-buffer and heating to 95° C. for 4 min.

[3] = test system: ATM substrate histone H2AX; assay: Phospho-H2AX immunofluorescence after etoposide, U2OS cells; format: cell-based, human; conditions: after etoposide treatment
Method: FIG. 2: U2OS cells were pre-treated and incubated with DMSO or MW01. DNA damage was induced by administration of etoposide. After 2 h cells were fixed, nuclei were stained with DAPI. p65 and phospho-H2AX, which is indicative for DNA DSB, were stained by immunofluorescence. Images were taken at a confocal Zeiss 710 LSM with a 40× oil objective.

PARP1 = biological target: T1, PARP1 (Mus musculus, UniProt P11103); assay: PARP1 enzymatic activity, PAR chain formation after γ-irradiation, MEF cells; format: cell-based
T1 construct: endogenous in cells; host or cells: MEF (mouse embryonic fibroblasts)
Text: FIG. 10: (A) MEF cells were pre-treated with the indicated substances, irradiated and cell lysates were used for poly(ADP)-ribose probing using a specific antibody. (B) Experiment performed as described for (A), but using U2OS cells.

U2OS cells = assay: Caspase-3-dependent cleavage of PARP1, WB, U2OS cells; format: cell-based, human
Method: FIG. 16: (A) U2OS cells were pre-treated with DMSO or MW01 and irradiated. Cells were lysed 8 h post γ-IR and were used for western blotting and immunochemical staining. (B) HEK293 cells were pre-treated with DMSO or MW01 and irradiated. After 48 h cells were fixed and stained with crystal violet. Dissolved crystal violet was used for absorbance measurement in a visible light spectrophotometer at a wavelength of 595 nm. (C) HEK293 cells were pre-treated with DMSO or MW01 and irradiated. The percentage of viable cells within the population was calculated by exclusion of annexin V and propidium-iodide positive cells measured by flow cytometry. (D) MEF cells were pre-treated with DMSO or MW01 and irradiated. Cells were used for annexin V staining 24 h and 48 after γ-IR. Percentage of annexin V positive cell population was analysed using a flow cytometer. (E) Experiment done as shown in (D) but with HT1080 cells processed 8 h after irradiation. Statistical significance was calculated using students t-test.

[4] = test system: genotoxic stress-activated NF-κB signaling; assay: TAK1 and p65 S536 phosphorylation after γ-irradiation, WB, HepG2 cells; format: cell-based, human
Method: FIG. 6: (A) U2OS cells were pre-treated with DMSO or MW01 and irradiated. Stimulation of cell with IL-1β served as a positive control for IκBα and p65 phosphorylation. Cells were lysed at indicated time points and used for WB analyses. (B,C) Similar experimental setup as in (A). (D) Experiment as in (A-C), but with other time points analysed and performed with HepG2 cells. PARP1 and LDH serve as loading controls.
FIG. 9: HepG2 cells were pre-incubated with DMSO, MW01 (5 μM) or the ATM inhibitor Ku55933 (10 μM) and irradiated. After 60 min cells were harvested and processed. Immunochemical staining of Western blotting membranes was done using indicated antibodies.
FIG. 14: (A) U2OS cells were pre-treated with different concentrations of olaparib prior to co-treatment with etoposide. Whole cell lysis was performed after 90 min and cleared lysates were used for WB with indicated antibodies. (B) U2OS cells were pre-treated with DMSO, olaparib or the ATM inhibitor Ku55933 and co-treated with etoposide. Cells were harvested after 45 min and subjected to SDS-PAGE/WB. Membranes were stained with the indicated antibodies. The experiment of (B) was performed simultaneously to the experiments of (A) and (E) to control functionality of olaparib in inhibiting PAR chain formation. (C) Densitometrical analyses of (A) and two further independent experiments done as shown in (A). (D) U2OS cells were pre-treated with the substances as indicated prior to irradiation. After 90 min mRNA was isolated, transcribed into cDNA and was used for expression analyses of the indicated genes using quantitative real-time PCR (qRT-PCR). (E) HepG2 cells were pre-treated with the PARP inhibitors olaparib, 3-AB and EB-47 prior to γ-irradiation. Cells were harvested after 15 and 90 min and subjected to SDS-PAGE/WB. Membranes were stained with the indicated antibodies. Error bars equal SEM.

nuclear IKKγ-PIASy-PARP1-ATM signalosome, sequence (Q9Y6K9 whole entry): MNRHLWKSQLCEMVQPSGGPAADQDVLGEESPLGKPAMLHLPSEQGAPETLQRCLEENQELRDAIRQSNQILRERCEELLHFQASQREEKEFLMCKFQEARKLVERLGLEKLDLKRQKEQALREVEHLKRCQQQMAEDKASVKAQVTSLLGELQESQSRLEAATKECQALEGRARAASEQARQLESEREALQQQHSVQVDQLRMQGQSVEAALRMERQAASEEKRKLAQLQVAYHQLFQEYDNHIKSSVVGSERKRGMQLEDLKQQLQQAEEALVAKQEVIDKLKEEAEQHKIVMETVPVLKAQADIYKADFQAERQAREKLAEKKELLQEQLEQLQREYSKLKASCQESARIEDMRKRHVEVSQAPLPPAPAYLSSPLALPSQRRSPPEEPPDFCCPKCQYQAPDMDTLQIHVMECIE
nuclear IKKγ-PIASy-PARP1-ATM signalosome, sequence (Q8N2W9 2-510 limits assumed): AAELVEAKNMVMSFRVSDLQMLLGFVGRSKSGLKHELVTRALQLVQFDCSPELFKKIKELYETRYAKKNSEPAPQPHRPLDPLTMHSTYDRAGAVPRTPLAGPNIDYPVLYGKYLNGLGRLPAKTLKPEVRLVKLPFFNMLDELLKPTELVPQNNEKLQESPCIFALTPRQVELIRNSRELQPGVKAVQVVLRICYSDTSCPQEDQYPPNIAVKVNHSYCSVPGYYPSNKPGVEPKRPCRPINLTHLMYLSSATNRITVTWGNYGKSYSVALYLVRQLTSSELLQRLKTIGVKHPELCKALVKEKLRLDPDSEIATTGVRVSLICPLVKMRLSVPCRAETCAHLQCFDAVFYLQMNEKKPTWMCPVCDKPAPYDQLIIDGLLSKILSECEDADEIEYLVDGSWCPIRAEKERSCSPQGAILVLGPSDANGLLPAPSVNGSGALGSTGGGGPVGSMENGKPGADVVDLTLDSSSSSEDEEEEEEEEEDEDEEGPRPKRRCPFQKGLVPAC
nuclear IKKγ-PIASy-PARP1-ATM signalosome, sequence (P09874 2-1014 limits assumed): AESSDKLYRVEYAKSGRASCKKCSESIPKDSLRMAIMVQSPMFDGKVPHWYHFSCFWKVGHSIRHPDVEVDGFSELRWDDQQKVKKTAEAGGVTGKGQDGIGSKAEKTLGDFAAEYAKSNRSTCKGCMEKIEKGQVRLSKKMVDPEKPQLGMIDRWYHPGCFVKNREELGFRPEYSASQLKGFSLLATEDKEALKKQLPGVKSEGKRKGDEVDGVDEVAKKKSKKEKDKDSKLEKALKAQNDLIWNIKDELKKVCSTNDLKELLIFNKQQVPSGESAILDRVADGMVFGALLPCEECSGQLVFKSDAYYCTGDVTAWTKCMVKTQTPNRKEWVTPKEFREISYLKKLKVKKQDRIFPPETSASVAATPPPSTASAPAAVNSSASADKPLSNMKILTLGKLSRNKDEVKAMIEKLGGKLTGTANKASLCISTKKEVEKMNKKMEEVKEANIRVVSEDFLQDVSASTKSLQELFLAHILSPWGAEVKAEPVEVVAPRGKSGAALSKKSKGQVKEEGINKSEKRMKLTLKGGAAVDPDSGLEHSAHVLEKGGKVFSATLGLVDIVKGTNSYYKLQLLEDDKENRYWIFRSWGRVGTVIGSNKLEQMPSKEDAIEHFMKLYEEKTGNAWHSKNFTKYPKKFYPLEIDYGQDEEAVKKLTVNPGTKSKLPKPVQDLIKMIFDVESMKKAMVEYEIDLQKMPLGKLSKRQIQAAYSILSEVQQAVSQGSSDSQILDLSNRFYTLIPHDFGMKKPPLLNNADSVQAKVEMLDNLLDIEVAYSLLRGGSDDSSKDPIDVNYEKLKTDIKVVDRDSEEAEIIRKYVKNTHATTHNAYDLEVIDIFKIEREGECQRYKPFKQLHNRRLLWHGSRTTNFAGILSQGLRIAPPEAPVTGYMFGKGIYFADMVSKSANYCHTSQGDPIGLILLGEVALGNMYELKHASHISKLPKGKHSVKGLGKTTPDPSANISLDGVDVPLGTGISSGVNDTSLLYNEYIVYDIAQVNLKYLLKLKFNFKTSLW
nuclear IKKγ-PIASy-PARP1-ATM signalosome, sequence (Q13315 2-3056 limits assumed): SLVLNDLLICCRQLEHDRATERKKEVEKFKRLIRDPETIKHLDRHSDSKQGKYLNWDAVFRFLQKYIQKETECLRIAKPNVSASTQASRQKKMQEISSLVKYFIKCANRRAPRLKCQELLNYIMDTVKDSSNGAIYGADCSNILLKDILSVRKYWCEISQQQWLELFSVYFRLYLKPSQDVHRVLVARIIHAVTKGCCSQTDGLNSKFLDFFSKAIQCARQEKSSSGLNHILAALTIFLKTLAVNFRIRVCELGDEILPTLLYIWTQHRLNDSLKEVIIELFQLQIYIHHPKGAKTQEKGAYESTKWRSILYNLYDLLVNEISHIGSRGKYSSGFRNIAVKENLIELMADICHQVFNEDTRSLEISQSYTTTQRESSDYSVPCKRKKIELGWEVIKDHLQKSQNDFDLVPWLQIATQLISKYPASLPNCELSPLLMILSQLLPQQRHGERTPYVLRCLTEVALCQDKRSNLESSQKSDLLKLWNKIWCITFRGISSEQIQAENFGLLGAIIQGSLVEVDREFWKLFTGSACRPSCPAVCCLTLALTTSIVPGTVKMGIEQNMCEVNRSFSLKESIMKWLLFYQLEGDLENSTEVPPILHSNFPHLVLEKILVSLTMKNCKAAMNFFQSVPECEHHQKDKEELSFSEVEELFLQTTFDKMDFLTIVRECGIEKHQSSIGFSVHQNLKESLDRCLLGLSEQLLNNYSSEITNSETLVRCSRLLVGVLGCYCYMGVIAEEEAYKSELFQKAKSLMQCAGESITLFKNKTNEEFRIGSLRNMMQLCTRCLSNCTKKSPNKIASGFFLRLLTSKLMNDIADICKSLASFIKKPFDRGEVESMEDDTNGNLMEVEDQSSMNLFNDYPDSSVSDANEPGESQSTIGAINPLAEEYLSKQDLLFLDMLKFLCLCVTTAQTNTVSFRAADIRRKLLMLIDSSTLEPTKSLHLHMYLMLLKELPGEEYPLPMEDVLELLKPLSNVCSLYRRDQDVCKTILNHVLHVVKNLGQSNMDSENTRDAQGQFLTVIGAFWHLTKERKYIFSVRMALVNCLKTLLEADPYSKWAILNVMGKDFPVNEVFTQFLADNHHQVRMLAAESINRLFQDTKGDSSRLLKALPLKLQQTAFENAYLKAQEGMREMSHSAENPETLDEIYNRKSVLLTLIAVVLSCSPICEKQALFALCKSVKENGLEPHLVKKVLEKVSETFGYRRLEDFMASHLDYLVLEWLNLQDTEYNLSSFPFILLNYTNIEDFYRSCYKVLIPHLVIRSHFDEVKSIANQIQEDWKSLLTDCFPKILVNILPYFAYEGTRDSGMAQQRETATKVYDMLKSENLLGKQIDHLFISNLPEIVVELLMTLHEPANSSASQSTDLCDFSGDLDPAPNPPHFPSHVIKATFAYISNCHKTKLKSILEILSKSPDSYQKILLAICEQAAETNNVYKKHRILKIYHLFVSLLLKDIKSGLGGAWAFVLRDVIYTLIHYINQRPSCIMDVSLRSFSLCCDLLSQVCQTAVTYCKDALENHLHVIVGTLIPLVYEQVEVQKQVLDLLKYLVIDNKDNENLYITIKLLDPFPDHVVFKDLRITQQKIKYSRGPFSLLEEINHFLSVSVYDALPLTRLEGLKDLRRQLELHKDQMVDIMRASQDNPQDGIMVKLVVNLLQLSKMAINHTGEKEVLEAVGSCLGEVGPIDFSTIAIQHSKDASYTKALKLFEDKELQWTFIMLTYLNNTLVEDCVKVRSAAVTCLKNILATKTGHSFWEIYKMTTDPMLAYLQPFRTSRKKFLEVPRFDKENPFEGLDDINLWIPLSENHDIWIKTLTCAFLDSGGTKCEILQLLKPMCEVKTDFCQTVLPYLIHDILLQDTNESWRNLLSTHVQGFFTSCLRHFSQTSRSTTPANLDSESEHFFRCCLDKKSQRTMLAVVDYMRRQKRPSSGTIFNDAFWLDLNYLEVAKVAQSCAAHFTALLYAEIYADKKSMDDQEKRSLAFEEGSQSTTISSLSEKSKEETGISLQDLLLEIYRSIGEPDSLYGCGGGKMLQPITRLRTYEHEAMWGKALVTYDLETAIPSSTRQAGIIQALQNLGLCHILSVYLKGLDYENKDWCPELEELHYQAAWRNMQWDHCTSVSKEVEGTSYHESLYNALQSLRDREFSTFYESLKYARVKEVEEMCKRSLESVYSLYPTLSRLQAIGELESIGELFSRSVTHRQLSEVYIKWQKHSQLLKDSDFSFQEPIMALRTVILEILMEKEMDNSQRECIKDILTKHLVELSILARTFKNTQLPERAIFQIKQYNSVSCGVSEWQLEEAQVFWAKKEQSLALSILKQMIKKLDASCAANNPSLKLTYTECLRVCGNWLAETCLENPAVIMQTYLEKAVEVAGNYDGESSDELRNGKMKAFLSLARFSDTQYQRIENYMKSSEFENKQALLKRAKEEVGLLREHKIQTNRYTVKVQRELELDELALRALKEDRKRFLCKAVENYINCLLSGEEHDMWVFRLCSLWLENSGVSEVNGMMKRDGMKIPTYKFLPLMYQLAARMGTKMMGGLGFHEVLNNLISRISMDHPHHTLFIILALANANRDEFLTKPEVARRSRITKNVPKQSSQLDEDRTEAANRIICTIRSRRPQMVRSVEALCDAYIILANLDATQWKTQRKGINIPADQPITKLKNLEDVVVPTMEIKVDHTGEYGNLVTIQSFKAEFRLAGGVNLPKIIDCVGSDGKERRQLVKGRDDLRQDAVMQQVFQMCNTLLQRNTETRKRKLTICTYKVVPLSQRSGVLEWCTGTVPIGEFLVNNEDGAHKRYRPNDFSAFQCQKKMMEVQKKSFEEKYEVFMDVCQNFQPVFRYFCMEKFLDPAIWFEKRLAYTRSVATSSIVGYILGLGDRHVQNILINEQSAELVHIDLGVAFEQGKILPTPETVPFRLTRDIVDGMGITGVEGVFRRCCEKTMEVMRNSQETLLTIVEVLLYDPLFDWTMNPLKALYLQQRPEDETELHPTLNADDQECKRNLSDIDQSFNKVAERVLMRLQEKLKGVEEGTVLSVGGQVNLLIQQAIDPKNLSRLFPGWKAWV

COc1ccc2c(c1OC)c(=O)n1c3ccc(O)cc3c3ccnc2c31 [MW01, 12-hydroxy-6,7-dimethoxy-8H-benzo[c]indolo[3,2,1-ij][1,5]naphthyridin-8-one]
induced NF-κB DNA binding activity upon TNFα stimulation [1]: did not interfere with induced NF-κB DNA binding activity | co-immunoprecipitation of PARP1 with IKKγ ([2]; HepG2, IKKγ IP): not co-immunoprecipitated | γ-irradiation-induced Co-IP of phosphorylated ATM-51981 species with PIASy ([2]; HepG2 nuclear extracts, PIASy IP): lost after pre-treatment with MW01 | phosphorylation of the ATM substrate histone H2AX [3]: did not lead to impaired phosphorylation | PAR chain formation / PARP1 enzymatic activity (PARP1): did not interfere with activation of PARP1 enzymatic activity | PARP1 cleavage (U2OS cells; 8 h post γ-IR): strongly increased | PARP1 cleavage (U2OS cells; resting cells): slight increase | p65 S536 phosphorylation level ([4]; HepG2, 5 μM, irradiated, 60 min): drastically reduced | TAK1 and p65 phosphorylation ([4]; HepG2, γ-IR): abolished
